Test results taken from ChEMBL document CHEMBL4680155, “One-pot synthesis and molecular docking of some new spiropyranindol-2-one derivatives as immunomodulatory agents and in vitro antimicrobial potential with DNA gyrase inhibitor” (Eur J Med Chem, 2020).
In brackets after ≈: the same amount, converted by molar mass.

Legend:
Escherichia coli [1] = assay: Antibacterial activity against Escherichia coli ATCC 25922 assessed as diameter of inhibition zone at 0.5 mg/ml incubated for 24 hrs by agar diffusion method; type: functional; settings: read-out: DIZ
Staphylococcus aureus [2] = assay: Antibacterial activity against multidrug resistant Staphylococcus aureus ATCC 43300 assessed as diameter of inhibition zone at 0.5 mg/ml incubated for 24 hrs by agar diffusion method; type: functional; settings: read-out: DIZ
Neutrophil = assay: Immunomodulatory activity in human neutrophils infected with bacteria assessed as increase in bacterial killing by measuring reduced NBT incubated for 30 mins by NBT dye based spectrophotometry; type: functional; parameters: concentration or dose not given beside the values; settings: 0.5 h
Staphylococcus aureus [3] = assay: Antibacterial activity against multidrug resistant Staphylococcus aureus ATCC 33591 assessed as reduction in bacterial growth incubated for 1 day by paper disk diffusion method; type: functional; settings: ATCC 33591, 24 h
Escherichia coli [4] = assay: Antibacterial activity against multidrug resistant Escherichia coli ATCC BAA-196 assessed as reduction in bacterial growth incubated for 1 day by paper disk diffusion method; type: functional; settings: ATCC BAA-196, 24 h
Enterococcus faecalis [5] = assay: Antibacterial activity against Enterococcus faecalis ATCC 29212 assessed as reduction in bacterial growth incubated for 1 day by paper disk diffusion method; type: functional; settings: ATCC 29212, 24 h
Enterococcus faecalis [6] = assay: Bactericidal activity against Enterococcus faecalis ATCC 29212 incubated for 24 hrs followed by transferring to freshly prepared broth medium and measured after 24 hrs by broth microdilution assay; type: functional; settings: time 48 hrs
Staphylococcus aureus [7] = assay: Bactericidal activity against Staphylococcus aureus ATCC 33591 incubated for 24 hrs followed by transferring to freshly prepared broth medium and measured after 24 hrs by broth microdilution assay; type: functional; settings: time 48 hrs
Salmonella typhimurium [8] = assay: Antibacterial activity against Salmonella typhi ATCC 6539 assessed as diameter of inhibition zone at 0.5 mg/ml incubated for 24 hrs by agar diffusion method; type: functional, Salmonella enterica subsp. enterica serovar Typhimurium; settings: Salmonella enterica, read-out: DIZ
Candida albicans [9] = assay: Antifungal activity against Candida albicans ATCC 10231 assessed as diameter of inhibition zone at 0.5 mg/ml incubated for 24 hrs by agar diffusion method; type: functional; settings: read-out: DIZ
Aspergillus brasiliensis [10] = assay: Fungicidal activity against Aspergillus brasiliensis ATCC 16404 incubated for 72 hrs followed by transferring to freshly prepared broth medium and measured after 24 hrs by broth microdilution assay; type: functional; settings: time 96 hrs
Candida albicans [11] = assay: Antifungal activity against Candida albicans ATCC 10231 assessed as reduction in bacterial growth incubated for 1 day by paper disk diffusion method; type: functional; settings: ATCC 10231, 24 h
Staphylococcus aureus [12] = assay: Antibacterial activity against Staphylococcus aureus ATCC 29213 assessed as reduction in bacterial growth incubated for 1 day by paper disk diffusion method; type: functional; settings: ATCC 29213, 24 h
Staphylococcus aureus [13] = assay: Bactericidal activity against Staphylococcus aureus ATCC 43300 incubated for 24 hrs followed by transferring to freshly prepared broth medium and measured after 24 hrs by broth microdilution assay; type: functional; settings: time 48 hrs
Escherichia coli [14] = assay: Bactericidal activity against Escherichia coli ATCC BAA-196 incubated for 24 hrs followed by transferring to freshly prepared broth medium and measured after 24 hrs by broth microdilution assay; type: functional; settings: time 48 hrs
Escherichia coli [15] = assay: Antibacterial activity against multidrug resistant Escherichia coli ATCC BAA-196 assessed as diameter of inhibition zone at 0.5 mg/ml incubated for 24 hrs by agar diffusion method; type: functional; settings: read-out: DIZ
Staphylococcus aureus [16] = assay: Antibacterial activity against multidrug resistant Staphylococcus aureus ATCC 43300 assessed as reduction in bacterial growth incubated for 1 day by paper disk diffusion method; type: functional; settings: ATCC 43300, 24 h
Salmonella typhimurium [17] = assay: Bactericidal activity against Salmonella typhi ATCC 6539 incubated for 24 hrs followed by transferring to freshly prepared broth medium and measured after 24 hrs by broth microdilution assay; type: functional, Salmonella enterica subsp. enterica serovar […]; settings: Salmonella enterica, time 48 hrs
Enterococcus faecalis [18] = assay: Antibacterial activity against Enterococcus faecalis ATCC 29212 assessed as diameter of inhibition zone at 0.5 mg/ml incubated for 24 hrs by agar diffusion method; type: functional; settings: read-out: DIZ
Aspergillus brasiliensis [19] = assay: Antifungal activity against Aspergillus brasiliensis ATCC 16404 assessed as diameter of inhibition zone at 0.5 mg/ml incubated for 72 hrs by agar diffusion method; type: functional; settings: read-out: DIZ
Pseudomonas aeruginosa [20] = assay: Bactericidal activity against Pseudomonas aeruginosa ATCC BAA-2111 incubated for 24 hrs followed by transferring to freshly prepared broth medium and measured after 24 hrs by broth microdilution assay; type: functional; settings: time 48 hrs
Pseudomonas aeruginosa [21] = assay: Antibacterial activity against multidrug resistant Pseudomonas aeruginosa ATCC BAA-2111 assessed as reduction in bacterial growth incubated for 1 day by paper disk diffusion method; type: functional; settings: ATCC BAA-2111, 24 h
DNA gyrase = DNA gyrase (Staphylococcus aureus, UniProt P0A0K8+P20831); assay: Inhibition of Staphylococcus aureus DNA gyrase using relaxed pBR322 DNA as substrate incubated for 45 mins by agarose gel electrophoresis method; type: protein-complex assay
Escherichia coli [22] = assay: Bactericidal activity against Escherichia coli ATCC 25922 incubated for 24 hrs followed by transferring to freshly prepared broth medium and measured after 24 hrs by broth microdilution assay; type: functional; settings: time 48 hrs
Staphylococcus aureus [23] = assay: Antibacterial activity against multidrug resistant Staphylococcus aureus ATCC 33591 assessed as diameter of inhibition zone at 0.5 mg/ml incubated for 24 hrs by agar diffusion method; type: functional; settings: read-out: DIZ
Candida albicans [24] = assay: Fungicidal activity against Candida albicans ATCC 10231 incubated for 24 hrs followed by transferring to freshly prepared broth medium and measured after 24 hrs by broth microdilution assay; type: functional; settings: time 48 hrs
Escherichia coli [25] = assay: Antibacterial activity against Escherichia coli ATCC 25922 assessed as reduction in bacterial growth incubated for 1 day by paper disk diffusion method; type: functional; settings: ATCC 25922, 24 h
Salmonella typhimurium [26] = assay: Antibacterial activity against Salmonella typhi ATCC 6539 assessed as reduction in bacterial growth incubated for 1 day by paper disk diffusion method; type: functional, Salmonella enterica subsp. enterica serovar Typhimurium; settings: Salmonella enterica, ATCC 6539, 24 h
Aspergillus brasiliensis [27] = assay: Antifungal activity against Aspergillus brasiliensis ATCC 16404 assessed as reduction in bacterial growth incubated for 3 days by paper disk diffusion method; type: functional; settings: ATCC 16404, 72 h, time 3 day
Staphylococcus aureus [28] = assay: Antibacterial activity against Staphylococcus aureus ATCC 29213 assessed as diameter of inhibition zone at 0.5 mg/ml incubated for 24 hrs by agar diffusion method; type: functional; settings: read-out: DIZ
Pseudomonas aeruginosa [29] = assay: Antibacterial activity against multidrug resistant Pseudomonas aeruginosa ATCC BAA-2111 assessed as diameter of inhibition zone at 0.5 mg/ml incubated for 24 hrs by agar diffusion method; type: functional; settings: read-out: DIZ
Staphylococcus aureus [30] = assay: Bactericidal activity against Staphylococcus aureus ATCC 29213 incubated for 24 hrs followed by transferring to freshly prepared broth medium and measured after 24 hrs by broth microdilution assay; type: functional; settings: time 48 hrs

DNA gyrase, sequence (P0A0K8 whole entry): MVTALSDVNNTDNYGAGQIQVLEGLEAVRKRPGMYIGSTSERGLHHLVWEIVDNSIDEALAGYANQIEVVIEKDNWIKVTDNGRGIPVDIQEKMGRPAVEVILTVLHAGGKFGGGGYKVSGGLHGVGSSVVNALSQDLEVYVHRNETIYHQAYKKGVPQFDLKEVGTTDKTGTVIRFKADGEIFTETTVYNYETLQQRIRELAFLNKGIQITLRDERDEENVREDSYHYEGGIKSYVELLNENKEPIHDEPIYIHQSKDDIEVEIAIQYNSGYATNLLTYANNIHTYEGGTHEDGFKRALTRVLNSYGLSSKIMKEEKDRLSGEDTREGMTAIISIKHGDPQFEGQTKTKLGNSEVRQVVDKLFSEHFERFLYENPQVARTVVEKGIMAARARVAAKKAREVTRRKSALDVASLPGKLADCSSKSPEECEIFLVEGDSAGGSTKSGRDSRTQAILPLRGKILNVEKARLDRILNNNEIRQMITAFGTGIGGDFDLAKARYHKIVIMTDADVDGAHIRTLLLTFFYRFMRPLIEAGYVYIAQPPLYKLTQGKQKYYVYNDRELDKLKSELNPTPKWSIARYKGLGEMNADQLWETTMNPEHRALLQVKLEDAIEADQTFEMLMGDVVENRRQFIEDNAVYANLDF
DNA gyrase, sequence (P20831 whole entry): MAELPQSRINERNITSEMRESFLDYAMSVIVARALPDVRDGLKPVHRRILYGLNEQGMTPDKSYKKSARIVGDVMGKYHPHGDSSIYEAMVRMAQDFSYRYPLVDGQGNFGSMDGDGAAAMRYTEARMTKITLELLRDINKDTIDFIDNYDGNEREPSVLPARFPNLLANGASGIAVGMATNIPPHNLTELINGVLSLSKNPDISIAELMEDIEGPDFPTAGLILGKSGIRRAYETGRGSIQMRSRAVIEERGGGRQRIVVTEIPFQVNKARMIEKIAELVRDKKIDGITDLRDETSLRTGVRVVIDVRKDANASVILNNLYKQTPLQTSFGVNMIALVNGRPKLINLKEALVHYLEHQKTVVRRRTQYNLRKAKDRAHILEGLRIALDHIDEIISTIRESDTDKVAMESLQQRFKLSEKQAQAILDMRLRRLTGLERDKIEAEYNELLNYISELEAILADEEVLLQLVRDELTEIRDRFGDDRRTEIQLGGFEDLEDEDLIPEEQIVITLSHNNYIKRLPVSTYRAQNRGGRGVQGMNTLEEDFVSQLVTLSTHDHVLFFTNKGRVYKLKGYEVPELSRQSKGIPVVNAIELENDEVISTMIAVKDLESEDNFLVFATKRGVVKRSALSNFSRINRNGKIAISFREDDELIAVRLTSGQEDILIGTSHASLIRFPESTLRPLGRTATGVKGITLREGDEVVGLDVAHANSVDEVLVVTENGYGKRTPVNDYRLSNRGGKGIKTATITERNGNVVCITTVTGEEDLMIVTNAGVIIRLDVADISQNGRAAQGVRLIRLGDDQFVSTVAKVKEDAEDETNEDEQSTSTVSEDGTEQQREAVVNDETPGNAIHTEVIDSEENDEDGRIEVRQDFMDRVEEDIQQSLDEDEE

| Compound | zone of inhibition at 500 µg/mL (Escherichia coli [1]) [mm] | zone of inhibition at 500 µg/mL (Staphylococcus aureus [2]) [mm] | Activity (Neutrophil) [%] | MIC (Staphylococcus aureus [3]) [µg/mL] | MIC (Escherichia coli [4]) [µg/mL] | MIC (Enterococcus faecalis [5]) [µg/mL] | MBC (Enterococcus faecalis [6]) [µg/mL] | MBC (Staphylococcus aureus [7]) [µg/mL] | zone of inhibition at 500 µg/mL (Salmonella typhimurium [8]) [mm] | zone of inhibition at 500 µg/mL (Candida albicans [9]) [mm] | MFC (Aspergillus brasiliensis [10]) [µg/mL] | MIC (Candida albicans [11]) [µg/mL] | MIC (Staphylococcus aureus [12]) [µg/mL] | MBC (Staphylococcus aureus [13]) [µg/mL] | MBC (Escherichia coli [14]) [µg/mL] | zone of inhibition at 500 µg/mL (Escherichia coli [15]) [mm] | MIC (Staphylococcus aureus [16]) [µg/mL] | MBC (Salmonella typhimurium [17]) [µg/mL] | zone of inhibition at 500 µg/mL (Enterococcus faecalis [18]) [mm] | zone of inhibition at 500 µg/mL (Aspergillus brasiliensis [19]) [mm] | other results |
| --- | --- | --- | --- | --- | --- | --- | --- | --- | --- | --- | --- | --- | --- | --- | --- | --- | --- | --- | --- | --- | --- |
| CC(=O)C1=C(c2ccccc2)OC(N)=C(C#N)C12C(=O)Nc1ccc(S(=O)(=O)N3CCOCC3)cc12 (stereo unspecified) | 23 | 25 | 123.5 | 0.97 (≈ 1.91 µM) | 6.25 (≈ 12.3 µM) | 12.5 (≈ 24.7 µM) | 20 (≈ 39.5 µM) | 1.94 (≈ 3.83 µM) | 22 | 23 | 108 (≈ 213 µM) | 15.6 (≈ 30.8 µM) | 17.8 (≈ 35.1 µM) | 145 (≈ 286 µM) | 5.85 (≈ 11.5 µM) | 23 | 0.97 (≈ 1.91 µM) | 81.2 (≈ 160 µM) | 26 | 20 | MBC (Pseudomonas aeruginosa [20]): 6.66 µg/mL (≈ 13.1 µM); MIC (Pseudomonas aeruginosa [21]): 4.44 µg/mL (≈ 8.77 µM); IC50 (DNA gyrase): 24.8 µM; MBC (Escherichia coli [22]): 21.2 µg/mL (≈ 42 µM); zone of inhibition at 500 µg/mL (Staphylococcus aureus [23]): 26 mm; MFC (Candida albicans [24]): 31.2 µg/mL (≈ 61.7 µM); MIC (Escherichia coli [25]): 12.5 µg/mL (≈ 24.7 µM); MIC (Salmonella typhimurium [26]): 62.5 µg/mL (≈ 123 µM); MIC (Aspergillus brasiliensis [27]): 71.8 µg/mL (≈ 142 µM); zone of inhibition at 500 µg/mL (Staphylococcus aureus [28]): 24 mm; zone of inhibition at 500 µg/mL (Pseudomonas aeruginosa [29]): 22 mm; MBC (Staphylococcus aureus [30]): 23.1 µg/mL (≈ 45.6 µM) |
| CCOC(=O)C1=C(c2ccccc2)OC(N)=C(C#N)C12C(=O)Nc1ccc(S(=O)(=O)N3CCCCC3)cc12 (stereo unspecified) | 23 | 24 | 95.4 | 1.95 (≈ 3.65 µM) | 1.57 (≈ 2.94 µM) | 15.6 (≈ 29.2 µM) | 31.2 (≈ 58.4 µM) | 3.31 (≈ 6.19 µM) | 24 | 22 | 125 (≈ 234 µM) | 12.5 (≈ 23.4 µM) | 71.1 (≈ 133 µM) | 2.92 (≈ 5.46 µM) | 2.35 (≈ 4.4 µM) | 26 | 1.95 (≈ 3.65 µM) | 20.3 (≈ 38 µM) | 24 | 20 | MBC (Pseudomonas aeruginosa [20]): 6.24 µg/mL (≈ 11.7 µM); MIC (Pseudomonas aeruginosa [21]): 3.9 µg/mL (≈ 7.3 µM); IC50 (DNA gyrase): 19.8 µM; MBC (Escherichia coli [22]): 21.9 µg/mL (≈ 40.9 µM); zone of inhibition at 500 µg/mL (Staphylococcus aureus [23]): 25 mm; MFC (Candida albicans [24]): 25 µg/mL (≈ 46.8 µM); MIC (Escherichia coli [25]): 15.6 µg/mL (≈ 29.2 µM); MIC (Salmonella typhimurium [26]): 15.6 µg/mL (≈ 29.2 µM); MIC (Aspergillus brasiliensis [27]): 62.5 µg/mL (≈ 117 µM); zone of inhibition at 500 µg/mL (Staphylococcus aureus [28]): 21 mm; zone of inhibition at 500 µg/mL (Pseudomonas aeruginosa [29]): 24 mm; MBC (Staphylococcus aureus [30]): 99.5 µg/mL (≈ 186 µM) |
| CCOC(=O)C1=C(N)OC(C)=C(C(C)=O)C12C(=O)Nc1ccc(S(=O)(=O)N3CCOCC3)cc12 (stereo unspecified) | 21 | 23 | 136.7 | 3.9 (≈ 7.93 µM) | 3.9 (≈ 7.93 µM) | 12.5 (≈ 25.4 µM) | 17.6 (≈ 35.7 µM) | 5.07 (≈ 10.3 µM) | 20 | 20 | 177 (≈ 359 µM) | 8.88 (≈ 18.1 µM) | 62.5 (≈ 127 µM) | 6.66 (≈ 13.5 µM) | 7.8 (≈ 15.9 µM) | 24 | 4.44 (≈ 9.03 µM) | 53.1 (≈ 108 µM) | 19 | 16 | MBC (Pseudomonas aeruginosa [20]): 12.5 µg/mL (≈ 25.4 µM); MIC (Pseudomonas aeruginosa [21]): 7.81 µg/mL (≈ 15.9 µM); IC50 (DNA gyrase): 25.1 µM; MBC (Escherichia coli [22]): 20.3 µg/mL (≈ 41.3 µM); zone of inhibition at 500 µg/mL (Staphylococcus aureus [23]): 23 mm; MFC (Candida albicans [24]): 15.6 µg/mL (≈ 31.8 µM); MIC (Escherichia coli [25]): 15.6 µg/mL (≈ 31.8 µM); MIC (Salmonella typhimurium [26]): 31.2 µg/mL (≈ 63.6 µM); MIC (Aspergillus brasiliensis [27]): 88.3 µg/mL (≈ 180 µM); zone of inhibition at 500 µg/mL (Staphylococcus aureus [28]): 23 mm; zone of inhibition at 500 µg/mL (Pseudomonas aeruginosa [29]): 20 mm; MBC (Staphylococcus aureus [30]): 100 µg/mL (≈ 203 µM) |
